Assay results published in BindingDB's records for PubMed 7910212 (Yamanouchi Pharmaceutical, 1994).
pKi: −log10 of the molar value. Where “and” joins values, the source holds several entries; their conditions need not be identical. Equal entries are not always repeated.

Assays:
[1] = target: Mu-type opioid receptor (Rattus norvegicus, UniProt P33535)
[2] = target: 5-hydroxytryptamine receptor 2A (Rattus norvegicus, UniProt P14842)
[3] = target: Histamine H1 receptor (Cavia porcellus, UniProt P31389)
[4] = target: Kappa-type opioid receptor (Rattus norvegicus, UniProt P34975)
Chain of Kappa-type opioid receptor (P34975 whole entry): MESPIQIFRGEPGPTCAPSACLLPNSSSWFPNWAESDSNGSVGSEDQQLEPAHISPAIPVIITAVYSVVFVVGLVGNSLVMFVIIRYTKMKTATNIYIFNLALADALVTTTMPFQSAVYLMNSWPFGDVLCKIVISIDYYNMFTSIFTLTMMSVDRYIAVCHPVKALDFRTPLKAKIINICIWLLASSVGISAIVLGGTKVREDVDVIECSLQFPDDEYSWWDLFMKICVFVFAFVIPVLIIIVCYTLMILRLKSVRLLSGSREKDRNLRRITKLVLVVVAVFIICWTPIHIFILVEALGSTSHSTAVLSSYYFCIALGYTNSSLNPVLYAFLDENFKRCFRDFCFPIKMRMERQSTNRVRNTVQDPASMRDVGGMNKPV

[5] = target: T1, 5-hydroxytryptamine receptor 1A (Rattus norvegicus, UniProt P19327)
T1 sequence (P19327 whole entry): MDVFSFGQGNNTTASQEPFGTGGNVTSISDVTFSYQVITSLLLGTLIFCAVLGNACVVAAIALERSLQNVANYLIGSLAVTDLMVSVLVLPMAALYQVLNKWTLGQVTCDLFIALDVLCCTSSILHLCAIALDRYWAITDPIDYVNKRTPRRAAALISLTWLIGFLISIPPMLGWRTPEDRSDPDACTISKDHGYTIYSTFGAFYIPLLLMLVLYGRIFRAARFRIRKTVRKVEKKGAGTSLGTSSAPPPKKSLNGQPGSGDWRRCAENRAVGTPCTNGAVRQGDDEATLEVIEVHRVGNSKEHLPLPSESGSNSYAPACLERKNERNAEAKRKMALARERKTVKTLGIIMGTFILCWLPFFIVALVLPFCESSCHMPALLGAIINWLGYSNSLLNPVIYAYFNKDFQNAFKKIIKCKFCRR

[6] = target: D(2) dopamine receptor (Rattus norvegicus, UniProt P61169)
Chain of D(2) dopamine receptor (P61169 whole entry): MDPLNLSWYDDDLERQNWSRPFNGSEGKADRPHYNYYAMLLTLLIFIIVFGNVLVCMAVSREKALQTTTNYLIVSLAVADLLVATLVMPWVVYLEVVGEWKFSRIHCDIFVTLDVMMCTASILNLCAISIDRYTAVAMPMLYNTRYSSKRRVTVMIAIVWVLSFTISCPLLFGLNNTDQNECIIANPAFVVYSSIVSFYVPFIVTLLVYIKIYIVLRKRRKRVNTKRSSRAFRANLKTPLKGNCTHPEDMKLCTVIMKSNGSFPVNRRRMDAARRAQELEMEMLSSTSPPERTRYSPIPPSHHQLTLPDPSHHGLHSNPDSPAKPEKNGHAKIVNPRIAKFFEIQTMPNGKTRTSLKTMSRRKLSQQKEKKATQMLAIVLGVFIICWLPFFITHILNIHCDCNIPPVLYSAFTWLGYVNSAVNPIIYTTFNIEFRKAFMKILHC

[7] = target: T2, Alpha-1A adrenergic receptor (Rattus norvegicus, UniProt P43140)
T2 sequence (P43140 whole entry): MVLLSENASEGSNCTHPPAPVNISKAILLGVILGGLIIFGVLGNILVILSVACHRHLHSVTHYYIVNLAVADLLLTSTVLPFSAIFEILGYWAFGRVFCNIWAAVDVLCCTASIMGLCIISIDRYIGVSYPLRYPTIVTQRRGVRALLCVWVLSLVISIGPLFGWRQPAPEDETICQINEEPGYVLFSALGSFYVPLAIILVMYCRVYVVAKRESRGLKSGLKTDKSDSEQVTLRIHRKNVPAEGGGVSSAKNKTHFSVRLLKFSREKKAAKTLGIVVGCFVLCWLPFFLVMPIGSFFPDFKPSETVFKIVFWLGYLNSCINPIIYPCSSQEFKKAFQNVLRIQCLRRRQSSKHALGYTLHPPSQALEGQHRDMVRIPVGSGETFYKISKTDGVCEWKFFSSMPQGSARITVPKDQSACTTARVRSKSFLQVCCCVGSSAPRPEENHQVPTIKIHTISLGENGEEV

[8] = target: Gamma-aminobutyric acid receptor subunit alpha-1 (Rattus norvegicus, UniProt P62813)
Chain of Gamma-aminobutyric acid receptor subunit alpha-1 (P62813 whole entry): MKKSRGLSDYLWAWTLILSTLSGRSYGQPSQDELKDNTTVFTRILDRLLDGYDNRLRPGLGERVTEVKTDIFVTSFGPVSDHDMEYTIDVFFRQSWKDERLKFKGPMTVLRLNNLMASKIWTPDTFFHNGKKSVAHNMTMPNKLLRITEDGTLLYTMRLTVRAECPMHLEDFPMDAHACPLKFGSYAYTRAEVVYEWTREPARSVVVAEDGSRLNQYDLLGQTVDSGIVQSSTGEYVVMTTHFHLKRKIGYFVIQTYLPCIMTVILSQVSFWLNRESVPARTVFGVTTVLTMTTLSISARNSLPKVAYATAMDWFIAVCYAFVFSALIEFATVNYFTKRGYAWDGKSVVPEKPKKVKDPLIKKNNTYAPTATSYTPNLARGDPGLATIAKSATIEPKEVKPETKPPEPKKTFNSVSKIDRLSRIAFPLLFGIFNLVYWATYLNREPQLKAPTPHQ

[9] = target: T3, Alpha-2C adrenergic receptor (Rattus norvegicus, UniProt P22086)
T3 sequence (P22086 whole entry): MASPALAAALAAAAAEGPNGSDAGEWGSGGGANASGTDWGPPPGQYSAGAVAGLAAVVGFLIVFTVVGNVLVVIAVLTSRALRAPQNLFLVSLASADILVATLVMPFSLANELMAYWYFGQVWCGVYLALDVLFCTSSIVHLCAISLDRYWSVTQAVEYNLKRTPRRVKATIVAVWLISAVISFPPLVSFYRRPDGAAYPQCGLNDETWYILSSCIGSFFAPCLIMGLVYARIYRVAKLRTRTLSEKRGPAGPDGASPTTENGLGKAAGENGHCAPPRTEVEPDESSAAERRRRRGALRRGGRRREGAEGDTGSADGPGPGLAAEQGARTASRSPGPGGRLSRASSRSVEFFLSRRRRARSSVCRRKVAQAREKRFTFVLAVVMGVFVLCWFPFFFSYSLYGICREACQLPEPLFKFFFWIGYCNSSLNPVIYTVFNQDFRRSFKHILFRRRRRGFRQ

[10] = target: T4, Muscarinic acetylcholine receptor M2 (Rattus norvegicus, UniProt P10980)
T4 sequence (P10980 whole entry): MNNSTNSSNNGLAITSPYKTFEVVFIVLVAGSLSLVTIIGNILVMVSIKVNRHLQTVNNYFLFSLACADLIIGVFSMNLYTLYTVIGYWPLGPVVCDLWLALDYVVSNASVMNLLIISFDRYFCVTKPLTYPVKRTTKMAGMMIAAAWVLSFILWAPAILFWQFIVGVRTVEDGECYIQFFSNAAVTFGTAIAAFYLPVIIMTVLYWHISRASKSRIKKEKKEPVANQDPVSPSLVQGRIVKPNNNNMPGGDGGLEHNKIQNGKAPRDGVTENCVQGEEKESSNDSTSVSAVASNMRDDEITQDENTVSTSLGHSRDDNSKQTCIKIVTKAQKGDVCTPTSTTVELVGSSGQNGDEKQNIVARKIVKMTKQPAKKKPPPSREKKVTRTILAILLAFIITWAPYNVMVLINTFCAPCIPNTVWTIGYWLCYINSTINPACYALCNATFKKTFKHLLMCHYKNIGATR

[11] = target: T5, Muscarinic acetylcholine receptor M1 (Rattus norvegicus, UniProt P08482)
T5 sequence (P08482 whole entry): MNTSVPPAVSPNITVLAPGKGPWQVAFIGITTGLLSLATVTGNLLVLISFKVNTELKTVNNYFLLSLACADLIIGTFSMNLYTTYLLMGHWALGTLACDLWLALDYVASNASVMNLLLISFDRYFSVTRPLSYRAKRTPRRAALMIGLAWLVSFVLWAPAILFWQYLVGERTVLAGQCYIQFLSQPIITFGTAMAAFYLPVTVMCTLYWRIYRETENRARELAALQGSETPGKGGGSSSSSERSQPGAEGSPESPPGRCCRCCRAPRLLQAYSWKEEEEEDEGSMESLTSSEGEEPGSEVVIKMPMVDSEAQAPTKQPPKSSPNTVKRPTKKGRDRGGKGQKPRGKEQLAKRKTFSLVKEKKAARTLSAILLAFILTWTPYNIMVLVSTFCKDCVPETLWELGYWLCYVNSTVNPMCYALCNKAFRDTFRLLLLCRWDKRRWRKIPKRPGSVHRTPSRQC

[12] = target: Muscarinic acetylcholine receptor M3 (Rattus norvegicus, UniProt P08483)
Chain of Muscarinic acetylcholine receptor M3 (P08483 whole entry): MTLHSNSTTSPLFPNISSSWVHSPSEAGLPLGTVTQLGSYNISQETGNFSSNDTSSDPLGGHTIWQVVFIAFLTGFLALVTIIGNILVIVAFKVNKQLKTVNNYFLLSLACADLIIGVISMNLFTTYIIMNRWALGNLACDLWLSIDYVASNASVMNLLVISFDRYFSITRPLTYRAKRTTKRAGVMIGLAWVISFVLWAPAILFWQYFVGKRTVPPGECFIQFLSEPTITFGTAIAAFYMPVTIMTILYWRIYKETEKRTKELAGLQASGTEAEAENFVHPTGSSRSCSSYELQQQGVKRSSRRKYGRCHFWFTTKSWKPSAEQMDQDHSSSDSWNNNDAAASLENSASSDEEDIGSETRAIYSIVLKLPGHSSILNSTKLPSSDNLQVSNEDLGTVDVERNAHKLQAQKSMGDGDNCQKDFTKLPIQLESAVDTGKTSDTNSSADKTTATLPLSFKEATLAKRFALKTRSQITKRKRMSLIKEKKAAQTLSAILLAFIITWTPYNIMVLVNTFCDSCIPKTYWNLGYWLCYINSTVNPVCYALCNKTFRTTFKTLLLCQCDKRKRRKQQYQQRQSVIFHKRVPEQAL

[13] = target: D(1A) dopamine receptor (Rattus norvegicus, UniProt P18901)
Chain of D(1A) dopamine receptor (P18901 whole entry): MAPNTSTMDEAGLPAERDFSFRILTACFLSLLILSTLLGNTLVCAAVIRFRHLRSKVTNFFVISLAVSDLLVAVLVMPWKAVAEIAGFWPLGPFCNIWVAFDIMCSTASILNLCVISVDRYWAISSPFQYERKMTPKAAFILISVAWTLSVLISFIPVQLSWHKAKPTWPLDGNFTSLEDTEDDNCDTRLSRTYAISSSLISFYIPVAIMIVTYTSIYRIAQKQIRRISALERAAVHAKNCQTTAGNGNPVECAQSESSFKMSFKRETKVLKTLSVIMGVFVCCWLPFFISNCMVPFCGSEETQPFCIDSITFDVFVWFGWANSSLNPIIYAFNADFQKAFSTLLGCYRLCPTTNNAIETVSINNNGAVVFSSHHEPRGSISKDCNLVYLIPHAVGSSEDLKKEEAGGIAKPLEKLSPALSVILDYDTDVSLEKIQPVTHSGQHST

[14] = target: Glutamate receptor 3 (Rattus norvegicus, UniProt P19492)
Chain of Glutamate receptor 3 (P19492 whole entry): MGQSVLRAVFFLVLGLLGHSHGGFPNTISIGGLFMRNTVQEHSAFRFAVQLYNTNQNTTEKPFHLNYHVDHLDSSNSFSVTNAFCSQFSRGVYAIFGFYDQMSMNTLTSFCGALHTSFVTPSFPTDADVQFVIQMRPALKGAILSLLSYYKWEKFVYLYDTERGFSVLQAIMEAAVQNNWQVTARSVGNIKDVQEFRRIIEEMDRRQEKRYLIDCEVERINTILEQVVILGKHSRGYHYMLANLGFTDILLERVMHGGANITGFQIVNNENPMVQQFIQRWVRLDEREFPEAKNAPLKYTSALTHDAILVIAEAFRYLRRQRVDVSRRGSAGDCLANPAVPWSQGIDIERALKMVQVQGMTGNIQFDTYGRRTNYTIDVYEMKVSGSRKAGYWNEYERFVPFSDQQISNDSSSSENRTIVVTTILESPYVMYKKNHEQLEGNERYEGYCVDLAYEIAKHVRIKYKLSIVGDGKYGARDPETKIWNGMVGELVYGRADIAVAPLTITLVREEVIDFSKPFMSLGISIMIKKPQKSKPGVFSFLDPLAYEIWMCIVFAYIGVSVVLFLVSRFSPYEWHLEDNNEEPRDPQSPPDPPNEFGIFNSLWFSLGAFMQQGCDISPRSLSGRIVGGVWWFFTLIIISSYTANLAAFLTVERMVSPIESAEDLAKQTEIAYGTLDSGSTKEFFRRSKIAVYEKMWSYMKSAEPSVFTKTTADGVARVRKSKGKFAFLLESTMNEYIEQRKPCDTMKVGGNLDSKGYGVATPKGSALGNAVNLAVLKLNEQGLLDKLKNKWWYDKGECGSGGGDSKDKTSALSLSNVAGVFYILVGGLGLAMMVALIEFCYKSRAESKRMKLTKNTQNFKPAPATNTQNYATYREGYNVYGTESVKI

[15] = target: Sigma non-opioid intracellular receptor 1 (Rattus norvegicus, UniProt Q9R0C9)
Chain of Sigma non-opioid intracellular receptor 1 (Q9R0C9 whole entry): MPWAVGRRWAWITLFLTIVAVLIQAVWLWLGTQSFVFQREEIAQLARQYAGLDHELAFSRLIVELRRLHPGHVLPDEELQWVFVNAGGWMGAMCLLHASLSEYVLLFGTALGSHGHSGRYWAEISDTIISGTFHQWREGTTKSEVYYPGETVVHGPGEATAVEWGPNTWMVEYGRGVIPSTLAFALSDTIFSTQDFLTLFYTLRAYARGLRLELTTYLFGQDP

[16] = target: Beta-2 adrenergic receptor (Rattus norvegicus, UniProt P10608)
Chain of Beta-2 adrenergic receptor (P10608 whole entry): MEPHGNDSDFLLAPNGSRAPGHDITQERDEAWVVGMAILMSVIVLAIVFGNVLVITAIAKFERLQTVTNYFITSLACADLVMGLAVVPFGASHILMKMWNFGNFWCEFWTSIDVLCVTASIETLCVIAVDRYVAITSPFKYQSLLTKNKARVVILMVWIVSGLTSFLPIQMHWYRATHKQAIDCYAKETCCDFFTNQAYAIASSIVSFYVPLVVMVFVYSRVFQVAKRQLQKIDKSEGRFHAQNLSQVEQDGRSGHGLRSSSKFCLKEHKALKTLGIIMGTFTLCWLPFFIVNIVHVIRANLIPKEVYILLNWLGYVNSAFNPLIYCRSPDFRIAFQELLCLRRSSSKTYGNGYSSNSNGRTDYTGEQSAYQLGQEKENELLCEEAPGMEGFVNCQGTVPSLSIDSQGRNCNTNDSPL

[17] = target: T6, Gastrin/cholecystokinin type B receptor (Rattus norvegicus, UniProt P30553)
T6 sequence (P30553 whole entry): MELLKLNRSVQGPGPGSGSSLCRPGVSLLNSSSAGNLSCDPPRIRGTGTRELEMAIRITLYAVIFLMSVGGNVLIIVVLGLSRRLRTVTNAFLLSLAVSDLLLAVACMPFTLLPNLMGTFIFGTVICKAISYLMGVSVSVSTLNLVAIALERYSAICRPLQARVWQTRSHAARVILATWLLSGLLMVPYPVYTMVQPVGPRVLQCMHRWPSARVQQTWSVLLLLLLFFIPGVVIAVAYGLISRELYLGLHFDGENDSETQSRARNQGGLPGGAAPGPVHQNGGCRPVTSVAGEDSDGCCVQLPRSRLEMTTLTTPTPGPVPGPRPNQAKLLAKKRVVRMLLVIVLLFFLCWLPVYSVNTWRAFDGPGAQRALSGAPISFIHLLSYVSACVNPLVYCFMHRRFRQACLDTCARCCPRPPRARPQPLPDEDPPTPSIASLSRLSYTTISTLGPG

Chain of 5-hydroxytryptamine receptor 2A (P14842 whole entry): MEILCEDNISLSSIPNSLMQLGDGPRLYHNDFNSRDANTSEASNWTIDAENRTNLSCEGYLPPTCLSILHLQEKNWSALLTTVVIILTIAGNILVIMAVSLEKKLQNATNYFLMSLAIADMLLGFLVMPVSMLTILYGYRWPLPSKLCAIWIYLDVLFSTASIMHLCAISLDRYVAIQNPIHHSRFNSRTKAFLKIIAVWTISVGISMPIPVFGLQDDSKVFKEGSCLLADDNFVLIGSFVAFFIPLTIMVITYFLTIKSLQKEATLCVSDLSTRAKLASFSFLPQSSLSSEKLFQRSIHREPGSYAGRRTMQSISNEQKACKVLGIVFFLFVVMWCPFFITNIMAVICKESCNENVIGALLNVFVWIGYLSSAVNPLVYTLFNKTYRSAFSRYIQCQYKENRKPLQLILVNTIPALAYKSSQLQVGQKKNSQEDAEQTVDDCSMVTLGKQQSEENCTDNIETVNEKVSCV
Chain of Mu-type opioid receptor (P33535 whole entry): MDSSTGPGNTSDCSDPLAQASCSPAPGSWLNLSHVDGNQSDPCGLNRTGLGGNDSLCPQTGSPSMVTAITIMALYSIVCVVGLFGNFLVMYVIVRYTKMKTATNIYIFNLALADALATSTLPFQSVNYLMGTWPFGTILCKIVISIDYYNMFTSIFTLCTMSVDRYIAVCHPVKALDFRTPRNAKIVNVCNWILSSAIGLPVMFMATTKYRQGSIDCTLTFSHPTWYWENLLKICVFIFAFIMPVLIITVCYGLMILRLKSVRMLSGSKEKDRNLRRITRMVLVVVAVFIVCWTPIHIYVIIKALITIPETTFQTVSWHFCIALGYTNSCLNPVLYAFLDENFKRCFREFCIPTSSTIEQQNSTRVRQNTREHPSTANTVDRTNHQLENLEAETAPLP

Cc1cccc(NC(=O)N[C@@H]2N=C(c3ccccc3)c3ccccc3N(CC(=O)c3ccccc3C)C2=O)c1
pKi [1]: < 5.00
pKi [2]: < 5.00
pKi [3]: < 5.00
pKi [4]: < 5.00
pKi [5]: < 5.00
pKi [6]: < 5.00
pKi [7]: < 5.00
pKi [8]: < 5.00
pKi [9]: < 5.00
pKi [10]: < 5.00
pKi [11]: < 5.00
pKi [12]: < 5.00
pKi [13]: < 5.00
pKi [14]: < 5.00
pKi [15]: < 5.00
pKi [16]: < 5.00

Cc1cccc(NC(=O)N[C@H]2N=C(c3ccccc3)c3ccccc3N(CC(=O)c3ccccc3C)C2=O)c1 [YM022 S-isomer]
pKi [17]: 6.85 and 6.31
